Molecular target: Spermine oxidase (Homo sapiens, UniProt Q9NWM0)
Experiment: Enzyme Inhibition Assay
Conditions: pH 8.3; 25 °C
Procedure: SMO activity was assayed at pH 8.3 (0.1 M Tris-HCl buffer) and 25°C using Spm as the substrate in the presence and absence of CHX.

Chain of Spermine oxidase (Q9NWM0 whole entry): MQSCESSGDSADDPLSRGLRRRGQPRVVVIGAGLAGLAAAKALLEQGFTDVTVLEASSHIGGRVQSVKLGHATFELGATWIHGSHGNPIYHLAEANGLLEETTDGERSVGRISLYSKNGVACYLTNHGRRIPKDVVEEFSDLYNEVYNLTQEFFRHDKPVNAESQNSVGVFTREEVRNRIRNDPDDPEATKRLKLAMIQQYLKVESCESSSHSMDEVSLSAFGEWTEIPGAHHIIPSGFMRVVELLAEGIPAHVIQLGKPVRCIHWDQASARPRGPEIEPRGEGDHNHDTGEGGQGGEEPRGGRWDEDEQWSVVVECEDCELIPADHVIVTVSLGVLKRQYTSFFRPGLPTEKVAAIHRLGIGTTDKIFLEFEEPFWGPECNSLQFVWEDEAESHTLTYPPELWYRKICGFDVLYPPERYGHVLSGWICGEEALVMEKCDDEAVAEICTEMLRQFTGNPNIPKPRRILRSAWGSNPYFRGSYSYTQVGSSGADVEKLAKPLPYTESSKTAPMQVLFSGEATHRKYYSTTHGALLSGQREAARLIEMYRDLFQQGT

- Ki: 550 nM
SMILES: [H]/N=C(\N/C(=N/[H])NCCCCCCNC(=N)NC(=N)Nc1ccc(Cl)cc1)Nc1ccc(Cl)cc1 [Chlorhexidine (1)]

— BindingDB's records for doi:10.3109/14756366.2011.650691 (University Roma Tre, 2013)
